We go through 18 molecules from patent publication US11584763B2, “Chromenopyridine derivatives as phosphatidylinositol phosphate kinase inhibitors” (HIBERCELL, INC., priority 2017, dated 2023).

The target of one test is T1, PIP4K2B (Homo sapiens, UniProt P78356).
T1 construct: made in house; host or cells: E. coli
T1 sequence (P78356 1-416): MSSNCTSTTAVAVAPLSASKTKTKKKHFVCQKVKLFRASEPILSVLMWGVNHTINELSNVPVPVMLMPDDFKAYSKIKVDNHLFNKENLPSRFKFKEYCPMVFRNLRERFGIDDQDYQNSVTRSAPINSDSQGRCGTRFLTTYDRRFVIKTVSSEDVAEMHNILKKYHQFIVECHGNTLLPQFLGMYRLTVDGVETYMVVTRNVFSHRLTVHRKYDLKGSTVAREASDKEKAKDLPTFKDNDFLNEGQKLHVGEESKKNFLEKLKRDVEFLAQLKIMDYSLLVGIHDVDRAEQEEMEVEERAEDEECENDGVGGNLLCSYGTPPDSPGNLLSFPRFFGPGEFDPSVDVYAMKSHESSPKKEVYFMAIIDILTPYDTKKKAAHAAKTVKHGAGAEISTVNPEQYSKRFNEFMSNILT
In words: Trans-FI P kinase assay PIP4K2B (PIP4KtypeIIB inhibition assay). The settings on record: compounds listed under IC50 bin headings; 100 uM GTP; read-out: Trans-FI P kinase assays: PIP4K2B IC50. The class given is biochemical. Summed up:
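GST-tagged human PIP4K2B (5 nM, E. coli-expressed) preincubated 1 h at 27 C with compound (top 4.8 uM, 5% DMSO), then reacted 2 h with 100 uM GTP and 80 uM PI5P/DOPE vesicles in HEPES pH 7.3, MgCl2, Triton X-100. GDP detected by Transcreener FI fluorescence via calibration curve; IC50 from % activity vs log[inhibitor].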

Another test has as its target T2, PIP4K 2A (Homo sapiens, UniProt P48426).
T2 sequence (P48426 1-406): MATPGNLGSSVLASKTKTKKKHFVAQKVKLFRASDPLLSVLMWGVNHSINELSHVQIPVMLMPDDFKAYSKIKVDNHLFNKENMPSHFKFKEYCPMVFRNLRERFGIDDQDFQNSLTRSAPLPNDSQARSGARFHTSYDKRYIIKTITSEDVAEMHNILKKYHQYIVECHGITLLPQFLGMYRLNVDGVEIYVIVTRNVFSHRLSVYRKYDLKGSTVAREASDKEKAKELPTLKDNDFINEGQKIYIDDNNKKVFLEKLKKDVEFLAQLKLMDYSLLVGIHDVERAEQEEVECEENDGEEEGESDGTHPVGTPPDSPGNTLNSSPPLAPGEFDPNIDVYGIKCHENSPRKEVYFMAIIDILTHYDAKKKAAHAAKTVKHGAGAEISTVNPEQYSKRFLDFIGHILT
The test can be described thus: ADP-glo kinase assay PIP4K 2A. The class given is biochemical. The settings on record: compounds listed under IC50 bin headings. Also noted: 4 nM PIP4K2A (full length protein, SignalChem); purchased SignalChem. Summed up:
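Full-length PIP4K2A was pre-incubated 15 min at RT with compound in 20 mM MOPS pH 7.2, 25 mM MgCl2, 0.005% Tween 20. The enzyme mix held 4 nM kinase and 100 μM PI(5)P diC8, and ATP was added from a 60 μM solution. After 1 h at RT, ADP-Glo luminescence gave % inhibition versus DMSO, fitted to IC50 over 10 threefold dilutions.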

As a reminder, the IC50 is the concentration needed to halve the response being measured.

Structures are written as SMILES.

`CC1Oc2cc(N3CCCC3=O)ccc2-c2cnc(Nc3cncc(NC(=O)c4ccc(NC(=O)/C=C/CN(C)C)cc4)c3)cc21` (stereo not drawn) [Example 174, (E)-4-(4-(dimethylamino)but-2-enamido)-N-(5-((5-methyl-8-(2-oxopyrrolidin-1-yl)-5H-chromeno[4,3-c]pyridin-3-yl)amino)pyridin-3-yl)benzamide]: the figures for the IC50 at PIP4K2B and against PIP4K 2A were 10 to 100 nM and 1 to 10 nM, respectively.

With `CC1Oc2cc(N3CCCC3=O)ccc2-c2cnc(Nc3cncc(NC(=O)CCc4cccc(NC(=O)/C=C/CN(C)C)c4)c3)cc21` (stereo not drawn) [Example 176, (E)-4-(dimethylamino)-N-(3-(3-((5-((5-methyl-8-(2-oxopyrrolidin-1-yl)-5H-chromeno[4,3-c]pyridin-3-yl)amino)pyridin-3-yl)amino)-3-oxopropyl)phenyl)but-2-enamide], the IC50 at PIP4K2B is 10 to 100 nM; against PIP4K 2A, 1 to 10 nM.

As for `CC1Oc2cc(N3CCCC3=O)ccc2-c2cnc(Nc3cncc(NC(=O)CCc4cccc(NC(=O)CCCN(C)C)c4)c3)cc21` (stereo not drawn) [Example 177, 4-(dimethylamino)-N-(3-(3-((5-((5-methyl-8-(2-oxopyrrolidin-1-yl)-5H-chromeno[4,3-c]pyridin-3-yl)amino)pyridin-3-yl)amino)-3-oxopropyl)phenyl)butanamide], the IC50 at PIP4K2B and at PIP4K 2A was 1 to 10 nM each time.

Take `CC1Oc2cc(N3CCCC3=O)ccc2-c2cnc(Nc3cncc(N4CCN(Cc5cccc(NC(=O)CNC(=O)/C=C/CN(C)C)c5)C4=O)c3)cc21` (stereo not drawn) [Example 178, (E)-4-(dimethylamino)-N-(2-((3-((3-(5-((5-methyl-8-(2-oxopyrrolidin-1-yl)-5H-chromeno[4,3-c]pyridin-3-yl)amino)pyridin-3-yl)-2-oxoimidazolidin-1-yl)methyl)phenyl)amino)-2-oxoethyl)but-2-enamide]: the IC50 was 1 to 10 nM on PIP4K2B and not above 1 nM at PIP4K 2A.

In the case of `CC1Oc2cc(N3CCCC3=O)ccc2-c2cnc(Nc3cnc4c(c3)N3C(=O)CC[C@@H]3CO4)cc21` (stereo partly drawn) [Example 180, (6aR)-2-((5-methyl-8-(2-oxopyrrolidin-1-yl)-5H-chromeno[4,3-c]pyridin-3-yl)amino)-6,6a,7,8-tetrahydro-9H-pyrido[2,3-b]pyrrolo[1,2-d][1,4]oxazin-9-one], the IC50 at PIP4K2B is 1 to 10 nM; against PIP4K 2A, not above 1 nM.

Take `CC1Oc2cc(N3CCCC3=O)c(F)cc2-c2cnc(Nc3cnc4c(c3)N3C(=O)CC[C@@H]3CO4)cc21` (stereo partly drawn) [Example 181, (6aR)-2-((9-fluoro-5-methyl-8-(2-oxopyrrolidin-1-yl)-5H-chromeno[4,3-c]pyridin-3-yl)amino)-6,6a,7,8-tetrahydro-9H-pyrido[2,3-b]pyrrolo[1,2-d][1,4]oxazin-9-one]: the IC50 at PIP4K2B and against PIP4K 2A was 1 to 10 nM in each case.

As to `O=C1CCCN1c1ccc2c(c1)OCc1cc(Nc3cnc4c(c3)N3C(=O)CC[C@@H]3CO4)ncc1-2` [Example 182, (R)-2-((8-(2-oxopyrrolidin-1-yl)-5H-chromeno[4,3-c]pyridin-3-yl)amino)-6,6a,7,8-tetrahydro-9H-pyrido[2,3-b]pyrrolo[1,2-d][1,4]oxazin-9-one], the IC50 at PIP4K2B and on PIP4K 2A was 1 to 10 nM throughout.

As for `CC1(C)Oc2cc(N3CCCC3=O)ccc2-c2cnc(Nc3cnc4c(c3)N3C(=O)CC[C@@H]3CO4)cc21` [Example 183, (R)-2-((5,5-dimethyl-8-(2-oxopyrrolidin-1-yl)-5H-chromeno[4,3-c]pyridin-3-yl)amino)-6,6a,7,8-tetrahydro-9H-pyrido[2,3-b]pyrrolo[1,2-d][1,4]oxazin-9-one], the IC50 on PIP4K2B and on PIP4K 2A was 1 to 10 nM each time.

Take `CC1(C)Oc2cc(N3CCCC3=O)c(F)cc2-c2cnc(Nc3cnc4c(c3)N3C(=O)CC[C@@H]3CO4)cc21` [Example 184, (R)-2-((9-fluoro-5,5-dimethyl-8-(2-oxopyrrolidin-1-yl)-5H-chromeno[4,3-c]pyridin-3-yl)amino)-6,6a,7,8-tetrahydro-9H-pyrido[2,3-b]pyrrolo[1,2-d][1,4]oxazin-9-one]: the values for the IC50 at PIP4K2B and on PIP4K 2A were 1 to 10 nM and not above 1 nM, respectively.

`CC1Oc2cc(N3CCCC3=O)ccc2-c2cnc(Nc3cncc(N4CCN(C)S4(=O)=O)c3)cc21` (stereo not drawn) [Example 185, 1-(5-methyl-3-((5-(5-methyl-1,1-dioxido-1,2,5-thiadiazolidin-2-yl)pyridin-3-yl)amino)-5H-chromeno[4,3-c]pyridin-8-yl)pyrrolidin-2-one]: the results for the IC50 at PIP4K2B and on PIP4K 2A were 100 to 1000 nM and 1 to 10 nM, respectively.

Regarding `CN1CCN(c2cncc(Nc3cc4c(cn3)-c3ccc(N5CCCC5=O)cc3OC4(C)C)c2)S1(=O)=O` [Example 186, 1-(5,5-dimethyl-3-((5-(5-methyl-1,1-dioxido-1,2,5-thiadiazolidin-2-yl)pyridin-3-yl)amino)-5H-chromeno[4,3-c]pyridin-8-yl)pyrrolidin-2-one], the IC50 at PIP4K2B and against PIP4K 2A was 10 to 100 nM throughout.

In the case of `CC1(C)Oc2cc(N3CCCC3=O)ccc2-c2cnc(Nc3cnc4c(c3)N3C(=O)CC[C@H]3CO4)nc21` [Example 189, (S)-2-((5,5-dimethyl-8-(2-oxopyrrolidin-1-yl)-5H-chromeno[3,4-d]pyrimidin-3-yl)amino)-6,6a,7,8-tetrahydro-9H-pyrido[2,3-b]pyrrolo[1,2-d][1,4]oxazin-9-one], the values for the IC50 at PIP4K2B and at PIP4K 2A were 1 to 10 nM and not above 1 nM, respectively.

Regarding `CC1(C)Oc2cc(N3CCCC3=O)c(F)cc2-c2cnc(Nc3cnc4c(c3)N3C(=O)CC[C@H]3CO4)nc21` [Example 190, (S)-2-((9-fluoro-5,5-dimethyl-8-(2-oxopyrrolidin-1-yl)-5H-chromeno[3,4-d]pyrimidin-3-yl)amino)-6,6a,7,8-tetrahydro-9H-pyrido[2,3-b]pyrrolo[1,2-d][1,4]oxazin-9-one], the IC50 is 1 to 10 nM at PIP4K2B and not above 1 nM against PIP4K 2A.

With `COc1ncc(Nc2cc3c(cn2)-c2ccc(N4CCCC4=O)cc2OC3(C)C)cc1NC(C)=O` [Example 191, N-(5-((5,5-dimethyl-8-(2-oxopyrrolidin-1-yl)-5H-chromeno[4,3-c]pyridin-3-yl)amino)-2-methoxypyridin-3-yl)acetamide], the half-inhibitory concentration (IC50) on PIP4K2B and on PIP4K 2A was 100 to 1000 nM each time.

For `CC1Oc2cc(N3CCCC3=O)ccc2-c2cnc(Nc3cncc(NC(=O)c4cccc5[nH]cnc45)c3)cc21` (stereo not drawn) [Example 196, N-(5-((5-methyl-8-(2-oxopyrrolidin-1-yl)-5H-chromeno[4,3-c]pyridin-3-yl)amino)pyridin-3-yl)-1H-benzo[d]imidazole-7-carboxamide], the values for the IC50 at PIP4K2B and against PIP4K 2A were 10 to 100 nM and 1 to 10 nM, respectively.

For the molecule `O=C1CCCN1c1ccc(-c2ccc(Nc3cnc4c(c3)N3C(=O)C5(CC5)C[C@H]3CO4)nc2)cc1F` [Example 197, (S)-2′-((5-(3-fluoro-4-(2-oxopyrrolidin-1-yl)phenyl)pyridin-2-yl)amino)-6a′,7′-dihydro-6′H,9′H-spiro[cyclopropane-1,8′-pyrido[2,3-b]pyrrolo[1,2-d][1,4]oxazin]-9′-one], the IC50 at PIP4K2B and against PIP4K 2A was 1 to 10 nM throughout.

As for `CN(C)C/C=C/C(=O)Nc1ccc(C(=O)Nc2cncc(Nc3cc4c(cn3)-c3ccc(N5CCCC5=O)cc3OC4(C)C)c2)cc1` [Example 198, (E)-N-(5-((5,5-dimethyl-8-(2-oxopyrrolidin-1-yl)-5H-chromeno[4,3-c]pyridin-3-yl)amino)pyridin-3-yl)-4-(4-(dimethylamino)but-2-enamido)benzamide], the IC50 at PIP4K2B and against PIP4K 2A was 1 to 10 nM in each case.

`CN(C)C/C=C/C(=O)Nc1cccc(CCC(=O)Nc2cncc(Nc3cc4c(cn3)-c3ccc(N5CCCC5=O)cc3OC4(C)C)c2)c1` [Example 199, (E)-N-(3-(3-((5-((5,5-dimethyl-8-(2-oxopyrrolidin-1-yl)-5H-chromeno[4,3-c]pyridin-3-yl)amino)pyridin-3-yl)amino)-3-oxopropyl)phenyl)-4-(dimethylamino)but-2-enamide]: the results for the IC50 at PIP4K2B and against PIP4K 2A were 10 to 100 nM and 1 to 10 nM, respectively.
